Consider 5 molecules from PMC7069095, “A cell-permeable peptide-based PROTAC against the oncoprotein CREPT proficiently inhibits pancreatic cancer” (Theranostics, 2020).

Residues, ends and D or L forms follow the SMILES beside them. No end group written: not given here. *: point of attachment. Cbz = O=C(OCc1ccccc1)*

The test system of data set [1] is Panc-1 cells. Put plainly: Flow cytometry, entry of FITC-labeled peptides into cells. It is filed as cell-based. Particulars: flow cytometry, FITC-labeled peptides, 10 μM, Panc-1 cells, triplicate; in comparison with PRTC, PRTC-m or PRTC-v. Here is the method: (§1) To examine whether PRTC could permeate into pancreatic cancer cells, we synthesized fluorescein isothiocyanate (FITC) labeled PRTC, PRTC-m, PRTC-v, PRTC-r (PRTC without RRRRK) as well as TAT (a widely used cell penetrating peptide, as a positive control).
(§2) Figure 3 Identification of the permeability of PRTC in Panc-1 cells. (A) Entry of FITC- labeled peptides into Panc-1 cells tested by flow cytometry. FITC-TAT is the positive control. Measurements were performed in triplicate. (B) Quantification of cellular uptake of Panc-1 cells treated with different concentrations of FITC-PRTC. (C) Confocal microscope images of Panc-1 cells treated with 10 μM FITC labeled peptides. Scale bars, 10 μm. (D) Confocal microscope images of Panc-1 cells treated with different dosages of FITC-PRTC. Scale bars, 10 μm.
In general terms: In flow cytometry, cells or beads pass a laser one at a time.

Data set [2] in a line: Circular dichroism (CD) spectroscopy. The class given is physicochemical. Particulars: 0.1 mg/mL in deionized water, room temperature. Here is the method: All peptides were dissolved in the deionized water at a final concentration of 0.1 mg/mL. The CD spectra were measured by using a 1 nm bandwidth with a 1 nm step resolution from 190 to 260 nm at room temperature (Jasco spectropolarimeter, Japan). Final spectra were obtained from the average of three parallel scans after subtracting a spectrum of deionized water recorded under the same conditions. Each sample was scanned thrice and the averaged spectrum was smoothed. The helicity were calculated by CDNN 2.1 [59], [60].

The test system of data set [3] is Panc-1 cells. Put plainly: Cell viability assay (CCK-8). The note with it: 10 μM, CCK-8, OD450, three individual experiments. It is filed as cell-based. Here is the method: Cells were seeded into 96-well plates (1000 cells per well) and cultured for the indicated times. Cell viability was evaluated using a CCK-8 kit (Solarbio, Beijing, China). The value of OD450 was calculated by spectrophotometer and presented as the mean ± standard deviation (SD) from three individual experiments.

For data set [4], the target named is T1, purified GST-CREPT protein (Homo sapiens, UniProt Q9NQG5).
T1 construct: made in house
T1 sequence (Q9NQG5 1-326): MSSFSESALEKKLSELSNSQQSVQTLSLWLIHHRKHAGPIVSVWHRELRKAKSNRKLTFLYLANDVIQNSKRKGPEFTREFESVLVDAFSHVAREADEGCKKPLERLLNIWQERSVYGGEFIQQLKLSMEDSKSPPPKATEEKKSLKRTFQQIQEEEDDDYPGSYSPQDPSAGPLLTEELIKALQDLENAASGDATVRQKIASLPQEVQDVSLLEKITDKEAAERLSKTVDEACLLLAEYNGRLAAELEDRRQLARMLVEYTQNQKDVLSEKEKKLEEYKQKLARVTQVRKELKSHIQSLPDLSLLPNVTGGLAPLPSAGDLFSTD
Put plainly: Microscale thermophoresis (MST). The class given is binding. Particulars: FITC-labeled peptide 100 nM, gradient dilutions of purified GST-CREPT. On the procedure:
FITC-labeled PRTC and PRTC-m were regarded as ligands. After a pretest, 100 nM of both PRTC and PRTC-m generated the most appropriate value of fluorescence. Gradient dilutions of purified CREPT proteins were regarded as the target. The Kd value was measured by Microscale Thermophoresis NT.115 and was analyzed by MO.AffinityAnalysis (Nano Temper, German).
For orientation: Microscale thermophoresis detects binding through changes in fluorescence in a small temperature gradient.

Data set [5] has as its system Panc-1 cells. Put plainly: Wound healing. It is filed as cell-based. The note with it: 10 μM for 24 h, FBS-free DMEM. Here is the method:
Cells were seeded in 6-well plates. Monolayer cells were scratched after culturing to obtain at least 95% confluence. Cells were washed with PBS and maintained in FBS-free DMEM and then treated with 10 μM PRTC and PRTC-m for 24 h. Migration distance was observed by microscopy and was measured by ImageJ from three individual experiments.

Data set [6] deals with T2, CREPT protein (Homo sapiens, UniProt Q9NQG5).
T2 construct: made in house
T2 sequence (Q9NQG5 1-326): T1 sequence (Q9NQG5 1-326)
Description: Thermal shift assay (TSA). The class given is binding. Particulars: GST-tagged CREPT 5.33 μM, SYPRO Orange, 25 to 70 °C at 1 °C/min. Here is the method:
Purified CREPT proteins were appropriately diluted in a buffer containing 50 mM Tris-HCl, pH 8.0, 150 mM NaCl. The final concentration of CREPT protein was 5.33 μM. SYPRO Orange dye was diluted into 10 μM. The PCR plates were sealed, shaken, and centrifuged after proteins and peptides were added. Thermal scanning (25 to 70 °C at 1 °C/min) was performed using a real-time PCR instrument (Bio-Rad). Melting curves were generated by Prism 7.0 based on the raw data.

Data set [7] concerns the target T3, ubiquitinated CREPT in Panc-1 cells (Homo sapiens, UniProt Q9NQG5).
T3 construct: endogenous protein level of CREPT in Panc-1, AsPc-1 and MIA-PaCa-2 cells; endogenous in cells; host or cells: Panc-1, AsPc-1, MIA PaCa-2
T3 sequence (Q9NQG5 1-326): T1 sequence (Q9NQG5 1-326)
Put plainly: Endogenous IP of CREPT with ubiquitin (Co-IP). It is filed as cell-based. Particulars: 10 μM peptide for 24 h, IP: CREPT, IB: anti-ubiquitin. Here is the method:
(§3) For exogenous immunoprecipitation assays, HEK293T cells were plated in 60 mm dishes and then transfected with the indicated plasmids. After 24 h, cells were harvested using RIPA buffer (50 mM Tris-HCl pH 8.0, 2 mM EDTA pH 8.0, 150 mM NaCl, 1% NP-40, 0.5% sodium deoxycholate, 0.1% SDS) with mixed protease inhibitors. Cell lysates were incubated with 2 μg of the indicated antibodies and 30 μL of protein A/G-Sepharose beads at 4 °C overnight. Beads were eluted five times with lysis buffer (50 mM Tris-HCl pH 7.6, 1 mM EDTA pH 8.0, 165 mM NaCl, 0.5% NP-40), and thereafter, a western blot assay was performed to analyze the association by using the indicated antibodies. Western blot was performed as previously reported. Anti-β-actin and anti-Flag antibodies were purchased from Sigma. Anti-Myc antibody was purchased from Santa Cruz Biotechnology. Antibody against CREPT was produced in the laboratory.
In addition, a Co-IP experiment was performed in Panc-1 cells treated with 10 μM PRTC, PRTC-m or PRTC-v for 24 h. […] In the absence of MG132, the level of ubiquitinated CREPT was further increased by PRTC (Figure 6C, compare lane 1 and lane 2).
Figure 6 The degradation of CREPT by PRTC is dependent on its VHL ligand. (A) Immunoblot of CREPT following 24 h incubation with different dosages of PRTC or PRTC-v in Panc-1 cells. (B) Immunoblot of CREPT exposed to 10 μM PRTC or PRTC-v for different time points in Panc-1 cells. (C) Endogenous IP experiment of CREPT with ubiquitin treated with 10 μM PTRC, PTRC-m or PTRC-v in Panc-1 cells. IP: CREPT, IB: Anti-ubiquitin.

For data set [8], the target named is T4, endogenous CREPT protein in Panc-1 cells (Homo sapiens, UniProt Q9NQG5).
T4 construct: endogenous protein level of CREPT in Panc-1, AsPc-1 and MIA-PaCa-2 cells; endogenous in cells; host or cells: Panc-1, AsPc-1, MIA PaCa-2
T4 sequence (Q9NQG5 1-326): T1 sequence (Q9NQG5 1-326)
Put plainly: Western blot of endogenous CREPT (degradation). It is filed as cell-based. Here is the method:
as §3
To address whether PRTC could induce CREPT degradation, we examined the endogenous protein level of CREPT in Panc-1, AsPc-1 and MIA-PaCa-2 cells in the presence of different dosages of PRTC. […] Consistently, treatment with PRTC led to decreases in CREPT protein at different times (Figure 5B, S3A). […] To further visualize the degradation process, we stained the endogenous CREPT protein with an antibody against CREPT in the cells treated with FITC-labeled PRTC.
Figure 5 PRTC induces the ubiquitination and proteasome- dependent degradation of the endogenous CREPT protein. (A) Immunoblot of CREPT following 24 h incubation with different dosages of PRTC or PRTC-m in Panc-1 cells. (B) Immunoblot of CREPT exposed to 10 μM PRTC or PRTC-m for different times in Panc-1 cells. (C) Western blot analysis of CREPT following 24 h incubation with 10 μM PTRC in Panc-1 cells. MG132 is an inhibitor of proteasome activity. (D) Immunofluorescence visualization of Panc-1 cells after treatment with PRTC for 24 h. Cells were stained with anti-CREPT antibody. Scale bars, 20 μm.
On the technique in general: Immunoblotting shows a protein as a band on a membrane.

Data set [9] addresses T5, Flag-CREPT (Homo sapiens, UniProt Q9NQG5).
T5 construct: expressed in transfected cells; host or cells: HEK293T
T5 sequence (Q9NQG5 1-326): T1 sequence (Q9NQG5 1-326)
Description: GST pull-down. The note with it: GST-tagged proteins purified from mammalian (HEK293T) cells. The class given is binding. On the procedure:
HEK293T cells were plated in 100 mm dishes and then transfected with the indicated plasmids. After 24 h, cells were harvested using RIPA buffer with mixed protease inhibitors. Cell lysates were incubated with 30 μL of GST-tagged Sepharose beads and 10 μg of purified proteins from either E. coli or HEK293T cells at 4 °C overnight. Beads were eluted five times with lysis buffer. Western blot was performed using an antibody against GST (Cell Signaling Technology) to analyze the association.

Data set [10] concerns Myc-CREPT and Myc-CCT. Description: Exogenous IP experiment in HEK293T cells. It is filed as binding. The note with it: GST-tagged CREPT ligand. Here is the method: as §3
Data set [11] concerns Panc-1 cells. Description: Confocal fluorescence imaging of FITC labeled peptides in cells. The class given is cell-based. The note with it: confocal microscope, 10 μM FITC labeled peptides, Panc-1 cells. On the procedure:
as §1, §2

As to “IYP (OH) AL-AHX-KDVLSEKEKKLEEYKQKLARV [PRTC-r, PRTC without RRRRK]”, the “fluorescence intensity in the cells (cell entry)” value in data set [1] was “obviously decreased”.
Regarding “IYP (OH) AL-AHX-KDVPSEKEKKPEEYKQKPARV-RRRRK [PRTC-m, three leucine residues on PRTC were replaced with proline residues]”, in data set [2], the “secondary structure by CD spectrum” value is “disordered structure”. In addition, the Helicity in data set [2] (190 to 260 nm, average of three scans, calculated by CDNN 2.1) was 7.9%. Moreover, the cell proliferation entry in data set [3] is “failed”. In [4], the “association with CREPT (MST)” value is “failed to associate”. Further, the “cell movement (wound healing)” value in data set [5] was “not”. The “effect on thermal stability of CREPT” value in [6] is reported as “failed to alter”. Also, the “ubiquitinated CREPT proteins” value in data set [7] is recorded as “unable to mediate the accumulation”. In addition, the “CREPT protein level at different times” value in [8] (10 μM or 20 μM peptide) is listed as “no effect”.
Take “GST-CL: GST protein tagged with CREPT ligand (CL) (KDVLSEKEKKLEEYKQKLARV; also: GST tag, end not given here)”: the “pull down of Flag-CREPT in vitro” value in [9] is on record as “able to pull down”. In addition, the “binding in exogenous IP” value in data set [10] is given as “strongly binds”.
For the molecule “FITC-AHX-KDVLSEKEKKLEEYKQKLARV-RRRRK [FITC-PRTC-v, FITC labeled PRTC-v]”, the “localization of FITC labeled peptides in the cells” value in data set [11] is on record as “strong localization”.
Consider `CC(C)C[C@@H](C=O)NC(=O)[C@H](CC(C)C)NC(=O)[C@H](CC(C)C)NC(=O)OCc1ccccc1` [MG132, reference compound] (Cbz-Leu-Leu-Leu-aldehyde), for which the “effect on PRTC-induced CREPT degradation” value in data set [8] (24 h incubation with 10 μM PRTC) is “completely abolished”.
